Experimental data: patent US5686486A, “4-hydroxy-benzopyran-2-ones and 4-hydroxy-cycloalkyl[b]pyran-2-ones useful to treat retroviral infections” (priority 1995, dated 1997)

Legend:
HIV-1 protease [1] = molecular target: T1, HIV-1 protease (Human immunodeficiency virus type 1 group M subtype B, UniProt P04585); assay: biochemical; conditions: for inhibition at 0.123 µM: read-out: HIV-1 Protease % Inhib, dose 0.123 uM; for inhibition at 0.37 µM: read-out: HIV-1 Protease % Inhib, dose 0.370 uM; for inhibition at 1.1 µM: read-out: HIV-1 Protease % Inhib, dose 1.100 uM; for inhibition at 3.3 µM: read-out: HIV-1 Protease % Inhib, dose 3.300 uM; for inhibition at 10 µM: read-out: HIV-1 Protease % Inhib, dose 10.000 uM; for inhibition at 30 µM: read-out: HIV-1 Protease % Inhib, dose 30.000 uM
Method in brief: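 Biotinylated, FITC-labeled peptide substrate (20 μl of 0.2 μM) incubated with HIV-1 protease (10 μl of 0.1 μM) and compound in 0.1 M sodium acetate pH 5.5, 1.0 M NaCl, 0.05% NP-40, 1 h, room temperature, dark. Streptavidin beads then capture uncleaved substrate; filtered labeled product read by fluorescence, giving percent inhibition.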

HIV-1 protease [2] = molecular target: T1, HIV-1 protease; assay: biochemical; conditions: read-out: HIV-1 FITC KI
Method in brief: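 Ki from two-fold serial inhibitor dilutions (24–48 concentrations) with 40 nM HIV-1 protease stock and 200 μM substrate stock, 90 min at room temperature; stopped with avidin beads. Reference inhibitor run in parallel; Ki by nonlinear least-squares fit.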

Compound | inhibition at 0.123 µM (HIV-1 protease [1]) | inhibition at 0.37 µM (HIV-1 protease [1]) | inhibition at 1.1 µM (HIV-1 protease [1]) | inhibition at 3.3 µM (HIV-1 protease [1]) | inhibition at 10 µM (HIV-1 protease [1]) | inhibition at 30 µM (HIV-1 protease [1]) | Ki (HIV-1 protease [2])
O=c1oc2c(c(O)c1C(c1cccc(NS(=O)(=O)Cc3ccccc3)c1)C1CC1)CCCCCC2 (stereo not drawn) [Example 321, N-[3-[Cyclopropyl(5,6,7,8,9,10-hexahydro-4-hydroxy-2-oxo-2H-cycloocta[b]pyran-3-yl)methyl]phenyl]-benzenemethanesulfonamide] | 22.2% | 62.1% | 100% | 113% | 119% | 118% | 13.2 nM
CCCS(=O)(=O)Nc1cccc(C(c2c(O)c3c(oc2=O)CCCCCC3)C2CC2)c1 (stereo not drawn) [Example 324, N-[3-[Cyclopropyl(5,6,7,8,9,10-hexahydro-4-hydroxy-2-oxo-2H-cycloocta[b]pyran-3-yl)methyl]phenyl]-1-propanesulfonamide] | 44.3% | 87.5% | 103% | 108% | 116% | 117% | 4 nM
O=C1c2ccccc2C(=O)N1CCS(=O)(=O)Nc1cccc(C(c2c(O)c3c(oc2=O)CCCCCC3)C2CC2)c1 (stereo not drawn) [Example 327, N-[3-[Cyclopropyl(5,6,7,8,9,10-hexahydro-4-hydroxy-2-oxo-2H-cycloocta[b]pyran-3-yl)methyl]phenyl]-1,3-dihydro-1,3-dioxo-2H-isoindole-2-ethanesulfonamide] | 34.2% | 68.2% | 94.8% | 105% | 106% | 113% | 13.5 nM
O=c1oc2c(c(O)c1C(c1cccc(NS(=O)(=O)CCCCl)c1)C1CC1)CCCCCC2 (stereo not drawn) [Example 331, 3-Chloro-N-[3-[cyclopropyl(5,6,7,8,9,10-hexahydro-4-hydroxy-2-oxo-2H-cycloocta[b]pyran-3-yl)methyl]phenyl]-1-propanesulfonamide] | 66.4% | 86.9% | 99.2% | 119% | 121% | 105% | 4.8 nM
O=c1oc2c(c(O)c1C(c1cccc(NS(=O)(=O)c3cc(C(F)(F)F)cc(C(F)(F)F)c3)c1)C1CC1)CCCCCC2 (stereo not drawn) [Example 332, N-[3-[Cyclopropyl(5,6,7,8,9,10-hexahydro-4-hydroxy-2-oxo-2H-cycloocta[b]pyran-3-yl)methyl]phenyl]-3,5-bis(trifluoromethyl)-benzenesulfonamide] | 23.1% | 39.3% | 71.5% | 94% | 109% | 115% | 47 nM
CC1(C)C2CCC1(CS(=O)(=O)Nc1cccc(C(c3c(O)c4c(oc3=O)CCCCCC4)C3CC3)c1)C(=O)C2 (stereo not drawn) [Example 333, N-[3-[Cyclopropyl(5,6,7,8,9,10-hexahydro-4-hydroxy-2-oxo-2H-cycloocta[b]pyran-3-yl)methyl]phenyl]-7,7-dimethyl-2-oxo-bicyclo[2.2.1]heptane-1-methanesulfonamide] |  | 28.3% | 62.2% | 82% | 102% | 110% | 104 nM
COc1cccc(Br)c1S(=O)(=O)Nc1cccc(C(c2c(O)c3c(oc2=O)CCCCCC3)C2CC2)c1 (stereo not drawn) [Example 337, 2-Bromo-N-[3-[cyclopropyl(5,6,7,8,9,10-hexahydro-4-hydroxy-2-oxo-2H-cycloocta[b]pyran-3-yl)methyl]phenyl]-6-methoxy-benzenesulfonamide] | 10.1% | 47.9% | 93.6% | 116% | 111% | 112% | 37.9 nM
Cc1noc(C)c1S(=O)(=O)Nc1cccc(C(c2c(O)c3c(oc2=O)CCCCCC3)C2CC2)c1 (stereo not drawn) [Example 338, N-[3-[Cyclopropyl(5,6,7,8,9,10-hexahydro-4-hydroxy-2-oxo-2H-cycloocta[b]pyran-3-yl)methyl]phenyl]-3,5-dimethyl-4-isoxazolesulfonamide] | 39.1% | 80.1% | 86.3% | 96.8% | 102% | 100% | 9.8 nM
O=c1oc2c(c(O)c1C(c1cccc(NS(=O)(=O)c3cccc4nsnc34)c1)C1CC1)CCCCCC2 (stereo not drawn) [Example 340, N-[3-[Cyclopropyl(5,6,7,8,9,10-hexahydro-4-hydroxy-2-oxo-2H-cycloocta[b]pyran-3-yl)methyl]phenyl]-2,1,3-benzothiadiazole-4-sulfonamide] | 77.8% | 93.2% | 90.9% | 96.5% | 101% | 96.5% | 1.9 nM
CCc1ccc(S(=O)(=O)Nc2cccc(C(c3c(O)c4c(oc3=O)CCCCCC4)C3CC3)c2)cc1 (stereo not drawn) [Example 341, N-[3-[Cyclopropyl(5,6,7,8,9,10-hexahydro-4-hydroxy-2-oxo-2H-cycloocta[b]pyran-3-yl)methyl]phenyl]-4-ethyl-benzenesulfonamide] | 59.4% | 92.8% | 110% | 107% | 120% | 122% | 5 nM
CCCCCCCCS(=O)(=O)Nc1cccc(C(c2c(O)c3c(oc2=O)CCCCCC3)C2CC2)c1 (stereo not drawn) [Example 343, N-[3-[Cyclopropyl(5,6,7,8,9,10-hexahydro-4-hydroxy-2-oxo-2H-cycloocta[b]pyran-3-yl)methyl]phenyl]-1-octanesulfonamide] | 39.4% | 75% | 91.2% | 104% | 112% | 105% | 6 nM
O=c1oc2c(c(O)c1C(c1cccc(NS(=O)(=O)CCc3ccccc3)c1)C1CC1)CCCCCC2 (stereo not drawn) [Example 346, N-[3-[Cyclopropyl(5,6,7,8,9,10-hexahydro-4-hydroxy-2-oxo-2H-cycloocta[b]pyran-3-yl)methyl]phenyl]-benzeneethanesulfonamide] | 75.1% | 92.5% | 97.3% | 102% | 103% | 97% | 3.85 nM
O=c1oc2c(c(O)c1C(c1cccc(NS(=O)(=O)c3ccc(-c4ccon4)s3)c1)C1CC1)CCCCCC2 (stereo not drawn) [Example 347, N-[3-[Cyclopropyl(5,6,7,8,9,10-hexahyro-4-hydroxy-2-oxo-2H-cycloocta[b]pyran-3-yl)methyl]phenyl]-5-(3-isoxazolyl)-2-thiophenesulfonamide] | 79.8% | 92.2% | 103% | 100% | 102% | 103% | 2.5 nM
